Data from ChEMBL document CHEMBL2157973, “An efficient synthesis of 3-OBn-6β,14-epoxy-bridged opiates from naltrexone and identification of a related dual MOR inverse agonist/KOR agonist” (Bioorg Med Chem Lett, 2012).

Assays:
Type in all cases: functional, cell-based
Mu-type opioid receptor [1] = target: T1, Mu-type opioid receptor (Homo sapiens, UniProt P35372); test: Inverse agonist activity at human recombinant mu opioid receptor expressed in CHO cells after 3 hrs by [35S]GTPgammaS binding assay relative to KC-2-009
T1 sequence (P35372 whole entry): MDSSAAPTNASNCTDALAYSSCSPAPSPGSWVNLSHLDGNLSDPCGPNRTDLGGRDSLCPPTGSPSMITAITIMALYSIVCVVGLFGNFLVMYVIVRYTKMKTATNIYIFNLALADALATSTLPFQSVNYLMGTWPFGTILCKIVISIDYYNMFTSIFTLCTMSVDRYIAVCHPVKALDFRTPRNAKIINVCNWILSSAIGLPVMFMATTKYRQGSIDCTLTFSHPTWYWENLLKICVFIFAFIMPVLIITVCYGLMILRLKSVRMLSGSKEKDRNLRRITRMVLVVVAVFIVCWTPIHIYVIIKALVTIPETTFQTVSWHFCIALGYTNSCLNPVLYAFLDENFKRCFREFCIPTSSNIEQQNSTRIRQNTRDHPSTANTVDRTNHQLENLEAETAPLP

[2] = target: Kappa-type opioid receptor (Homo sapiens) (UniProt P41145); test: Agonist activity at human kappa opioid receptor expressed in CHO cells after 3 hrs by [35S]GTPgammaS binding assay relative to control
Chain of Kappa-type opioid receptor (Homo sapiens) (P41145 whole entry): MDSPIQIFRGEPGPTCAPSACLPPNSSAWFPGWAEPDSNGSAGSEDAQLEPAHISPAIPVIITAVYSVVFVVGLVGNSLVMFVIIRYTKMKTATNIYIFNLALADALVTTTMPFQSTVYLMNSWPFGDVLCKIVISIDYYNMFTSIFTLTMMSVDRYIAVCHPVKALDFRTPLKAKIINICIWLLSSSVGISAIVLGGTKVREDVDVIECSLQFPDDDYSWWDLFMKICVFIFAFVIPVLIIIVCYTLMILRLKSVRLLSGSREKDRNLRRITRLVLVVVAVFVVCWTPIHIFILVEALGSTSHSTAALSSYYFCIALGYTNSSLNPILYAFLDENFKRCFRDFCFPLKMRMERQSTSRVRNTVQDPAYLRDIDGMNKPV

Mu-type opioid receptor [3] = target: T1, Mu-type opioid receptor; test: Inverse agonist activity at human recombinant mu opioid receptor expressed in CHO cells after 3 hrs by [35S]GTPgammaS binding assay
[4] = target: Kappa-type opioid receptor (Homo sapiens) (UniProt P41145); test: Agonist activity at human kappa opioid receptor expressed in CHO cells after 3 hrs by [35S]GTPgammaS binding assay

| Structure (SMILES) | Emax (Mu-type opioid receptor [1]) [%] | Emax [2] [%] | EC50 (Mu-type opioid receptor [3]) [nM] | ED50 [4] [nM] |
| --- | --- | --- | --- | --- |
| Oc1ccc2c3c1O[C@H]1[C@H](O)CC[C@@]4(O)[C@@H](C2)N(CC2CC2)CC[C@]314 | 89 |  |  |  |
| CS(=O)(=O)O[C@@H]1CC[C@@]2(O)[C@H]3Cc4ccc(O)c5c4[C@@]2(CCN3CC2CC2)[C@H]1O5 | 60.5 | 48 | 2.6 | 26 |
